{"source": "PubChem BioAssay AID328", "about": "(DTP/NCI, 2004)", "system": "BDF1 mice, P388 leukemia ip, median survival T/C", "assay": "NCI In Vivo Anticancer Drug Screen. Data for tumor model P388 Leukemia (intraperitoneal) in B6D2F1 (BDF1) mice", "conditions": "endpoint: median survival time, higher = longer survival", "procedure,_shortened": "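Mice carrying the transplantable tumour receive compound or vehicle. Survival is followed in each arm, and the treated measure is divided by the vehicle measure.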", "key": {"[1]": {"conditions": "dose: 100.0 mg/kg/injection, schedule: Q04DX003 (ip), vehicle: saline"}, "[2]": {"conditions": "dose: 100.0 mg/kg/injection, schedule: Q01DX009 (ip), vehicle: saline"}, "[3]": {"conditions": "dose: 200.0 mg/kg/injection, schedule: Q01DX009 (ip), vehicle: saline"}, "[4]": {"conditions": "dose: 50.0 mg/kg/injection, schedule: Q01DX009 (ip), vehicle: saline with Tween-80"}, "[5]": {"conditions": "dose: 100.0 mg/kg/injection, schedule: Q01DX009 (ip), vehicle: saline with Tween-80"}, "[6]": {"conditions": "dose: 200.0 mg/kg/injection, schedule: Q01DX009 (ip), vehicle: saline with Tween-80"}, "[7]": {"conditions": "dose: 25.0 mg/kg/injection, schedule: Q01DX009 (ip), vehicle: Klucel (hydroxypropylcellulose) (HPC)"}, "[8]": {"conditions": "dose: 50.0 mg/kg/injection, schedule: Q01DX009 (ip), vehicle: Klucel (hydroxypropylcellulose) (HPC)"}, "[9]": {"conditions": "dose: 100.0 mg/kg/injection, schedule: Q01DX009 (ip), vehicle: Klucel (hydroxypropylcellulose) (HPC)"}}, "note": "Where “and” joins values, the source holds several entries; their conditions need not be identical. Identical values can stand only once. Toxic doses and inconclusive results are not listed.", "data": [{"molecule": "COc1cc2cc(c1Cl)N(C)C(=O)CC(OC(=O)C(C)C)C1(C)OC1C(C)C1CC(O)(NC(=O)O1)C(OC)/C=C/C=C(/C)C2OC(C)=O", "note": "(centres undefined)", "values": [{"measurement": "T/C", "setting": "dose: 1.6 micrograms/kg/injection, schedule: Q01DX009 (ip), vehicle: saline + alcohol", "result": "162 % of control"}, {"measurement": "T/C", "setting": "dose: 3.1 micrograms/kg/injection, schedule: Q01DX009 (ip), vehicle: saline + alcohol", "result": "150 % of control"}, {"measurement": "T/C", "setting": "dose: 6.2 micrograms/kg/injection, schedule: Q01DX009 (ip), vehicle: saline + alcohol", "result": "166 % of control"}, {"measurement": "T/C", "setting": "dose: 12.5 micrograms/kg/injection, schedule: Q01DX009 (ip), vehicle: saline + alcohol", "result": "179 % of control"}, {"measurement": "T/C", "setting": "dose: 25.0 micrograms/kg/injection, schedule: Q01DX009 (ip), vehicle: saline + alcohol", "result": "170 % of control"}]}, {"molecule": "COc1cccc(NN)c1", "values": [{"measurement": "T/C", "setting": "dose: 25.0 mg/kg/injection, schedule: Q01DX009 (ip), vehicle: saline", "result": "113 % of control"}, {"measurement": "T/C", "setting": "dose: 50.0 mg/kg/injection, schedule: Q01DX009 (ip), vehicle: saline", "result": "104 % of control"}, {"measurement": "T/C", "setting": "dose: 50.0 mg/kg/injection, schedule: Q04DX003 (ip), vehicle: saline", "result": "100 % of control"}, {"measurement": "T/C", "setting": "[1]", "result": "91 % of control"}]}, {"molecule": "CC(O)C(O)C(O)C(/C=N\\NC(N)=S)=N/NC(N)=S", "note": "(centres undefined)", "values": [{"measurement": "T/C", "setting": "[2]", "result": "92 % of control"}, {"measurement": "T/C", "setting": "[3]", "result": "100 % of control"}, {"measurement": "T/C", "setting": "dose: 400.0 mg/kg/injection, schedule: Q01DX009 (ip), vehicle: saline", "result": "88 % of control"}]}, {"molecule": "S=C(NCCCN1CCOCC1)NN=C1c2ccccc2-c2ccccc21", "values": [{"measurement": "T/C", "setting": "[4]", "result": "97 % of control"}, {"measurement": "T/C", "setting": "[5]", "result": "91 % of control"}, {"measurement": "T/C", "setting": "[6]", "result": "97 % of control"}]}, {"molecule": "O=c1oc2c3ccccc3c3ccccc3c2o1", "values": [{"measurement": "T/C", "setting": "[7]", "result": "117 % of control"}, {"measurement": "T/C", "setting": "[8]", "result": "115 % of control"}, {"measurement": "T/C", "setting": "[9]", "result": "114 % of control"}]}, {"molecule": "CC(C)CCCC(C)C1CCC2C3CC=C4CC(S[As](C)C)CCC4(C)C3CCC12C", "note": "(centres undefined)", "values": [{"measurement": "T/C", "setting": "[4]", "result": "98 % of control"}, {"measurement": "T/C", "setting": "[5]", "result": "95 % of control"}, {"measurement": "T/C", "setting": "[6]", "result": "98 % of control"}]}, {"molecule": "CCn1cnc2c(SC)nc(N)nc21", "values": [{"measurement": "T/C", "setting": "[7]", "result": "110 % of control"}, {"measurement": "T/C", "setting": "[8]", "result": "105 % of control"}, {"measurement": "T/C", "setting": "dose: 50.0 mg/kg/injection, schedule: Q04DX003 (ip), vehicle: alcohol", "result": "100 % of control"}, {"measurement": "T/C", "setting": "dose: 75.0 mg/kg/injection, schedule: Q04DX003 (ip), vehicle: Klucel (hydroxypropylcellulose) (HPC)", "result": "104 % of control"}, {"measurement": "T/C", "setting": "[9]", "result": "100 % of control"}, {"measurement": "T/C", "setting": "dose: 100.0 mg/kg/injection, schedule: Q04DX003 (ip), vehicle: alcohol", "result": "100 % of control"}, {"measurement": "T/C", "setting": "dose: 150.0 mg/kg/injection, schedule: Q04DX003 (ip), vehicle: Klucel (hydroxypropylcellulose) (HPC)", "result": "100 % of control"}, {"measurement": "T/C", "setting": "dose: 200.0 mg/kg/injection, schedule: Q04DX003 (ip), vehicle: alcohol", "result": "100 % of control"}, {"measurement": "T/C", "setting": "dose: 300.0 mg/kg/injection, schedule: Q04DX003 (ip), vehicle: Klucel (hydroxypropylcellulose) (HPC)", "result": "109 % of control"}]}, {"molecule": "O=c1oc(/C=C/c2ccccc2)nc2cc(Cl)ccc12", "values": [{"measurement": "T/C", "setting": "dose: 100.0 mg/kg/injection, schedule: Q04DX003 (ip), vehicle: saline with Tween-80", "result": "100 % of control"}, {"measurement": "T/C", "setting": "dose: 200.0 mg/kg/injection, schedule: Q04DX003 (ip), vehicle: saline with Tween-80", "result": "109 % of control"}, {"measurement": "T/C", "setting": "dose: 400.0 mg/kg/injection, schedule: Q04DX003 (ip), vehicle: saline with Tween-80", "result": "100 % of control"}]}, {"molecule": "COc1cccc2c1C(=O)c1c(O)c3c(c(O)c1C2=O)C[C@@](O)(C(C)O)C[C@@H]3OC1CC(N(Cc2ccccc2)Cc2ccccc2)C(O)C(C)O1", "note": "(some centres undefined)", "values": [{"measurement": "T/C", "setting": "dose: 2.5 mg/kg/injection, schedule: Q01DX009 (ip), vehicle: water", "result": "108 % of control"}, {"measurement": "T/C", "setting": "dose: 5.0 mg/kg/injection, schedule: Q01DX009 (ip), vehicle: water", "result": "112 % of control"}, {"measurement": "T/C", "setting": "dose: 20.0 mg/kg/injection, schedule: Q01DX009 (ip), vehicle: water", "result": "166 % of control"}, {"measurement": "T/C", "setting": "dose: 40.0 mg/kg/injection, schedule: Q01DX009 (ip), vehicle: water", "result": "229 % of control"}]}, {"molecule": "CCN(CCNc1ccc(C)c2sc3cc(Cl)ccc3c(=O)c12)CC(C)O", "note": "(centres undefined)", "values": [{"measurement": "T/C", "setting": "[2]", "result": "109 % of control"}, {"measurement": "T/C", "setting": "[3]", "result": "104 % of control"}]}, {"molecule": "Brc1ccc(C[N+]23CN4CN(CN(C4)C2)C3)cc1", "values": [{"measurement": "T/C", "setting": "[2]", "result": "115 % of control"}, {"measurement": "T/C", "setting": "[1]", "result": "118 % of control"}, {"measurement": "T/C", "setting": "dose: 132.0 mg/kg/injection, schedule: Q01DX009 (ip), vehicle: saline with Tween-80", "result": "107 % of control and 108 % of control"}, {"measurement": "T/C", "setting": "[3]", "result": "90 % of control"}, {"measurement": "T/C", "setting": "dose: 200.0 mg/kg/injection, schedule: Q04DX003 (ip), vehicle: saline", "result": "122 % of control"}]}]}
